Measured values taken from US9522163B2, “Methods of treating hepatitis” (priority 2002, dated 2016).
Entries after “also recorded” stand apart in the source; their conditions may differ.

Assays:
iNOS = test: Liver iNOS expression (immunoblot, immunostaining); format: in vivo, mice
Description: Western blot analysis was performed on primary hepatocytes in culture or from liver homogenates with antibodies to iNOS (Transduction Laboratories, Lexington, Ky.; 1:1000), HO-1 (Calbiochem; 1:2000), or β-actin (Sigma Chemical; 1:5000). Thirty μg protein in cell culture experiments or 100 μg protein from liver homogenates was loaded per well for SDS-PAGE.
For histology and immunohistochemistry, livers were fixed in 2% paraformaldehyde and then snap frozen in liquid nitrogen. Livers were then sectioned (7 microns thick) and stained with hematoxylin and eosin (H&E). Liver sections were also stained for TUNEL and activated caspase-3 using kits according to the manufacturer's instructions (Promega). Sections for iNOS immunocytochemistry were blocked with 5% goat serum containing 0.2% bovine serum albumin. Thereafter, sections were incubated for 1 hour at room temperature with anti-iNOS antibody (Transduction Laboratories; 1:300), then washed and probed with a secondary antibody conjugated to Alexa-488 (Molecular Probes, Eugene, Oreg.). Nuclei were stained with Hoechst dye. Images were acquired using an Olympus Provus microscope. Hepatocytes in culture were plated on gelatinized coverslips, stimulated as indicated, and then fixed in 2% paraformaldehyde containing 0.1% Triton X-100. […]

[1] = system: mouse primary hepatocytes; test: TNF-α/ActD-induced cell death, crystal violet viability; format: cell-based
Description: Mouse primary hepatocytes were harvested from C57BL/6J, mkk3^−/−, inos^−/− (in-house breeding colony), or hmox-1^−/− mice as described in Kim et al. (J. Biol. Chem. 272: 1402-1411 (1997)). Hepatocytes were used on days 1-3 following harvest.
Cells were treated with TNF-α (10 ng/ml) and actinomycin-D (Act-D; 200 ng/ml, Sigma Chemical Co. St. Louis, Mo.) to induce cell death.
Whether exogenous CO is protective against hepatocyte cell death in vitro was investigated. To generate the data presented in FIG. 2, mouse hepatocytes were pre-incubated with CO (250 ppm) for 1 hr (standard pre-treatment time for all experiments) prior to addition of TNF-α/Act-D (10 ng/200 ng/ml respectively). Cells were maintained in CO for the duration of the experiment. Twelve hours afterward, cell viability was measured as described in Kim et al. (J. Biol. Chem. 272: 1402-1411 (1997)). Adenoviral experiments involved incubating hepatocytes overnight with 10 pfu/cell of the adenovirus prior to addition of TNF-α/ActD, and then assaying for viability using crystal violet. The roles of signaling molecules guanylyl cyclase and p38 MAPK were also investigated in this model. To evaluate the role of cGMP and confirm the role of NF-κB, hepatocytes were treated separately with the soluble guanylate cyclase (sGC) inhibitor 1H-[1,2,4]Oxadiazolo[4,3-a]quinoxalin-1-one (ODQ; Calbiochem; 2-10 μM) or the NF-κB inhibitor BAY 11-7082, (10 μM). Cells were treated with the inhibitors for 1 hour prior to the 1 hour pretreatment with CO. TNF-α/ActD was then added and the cells tested for viability 12 hours later. NF-κB activation was critical to the protection elicited by CO while cGMP was not involved.
To generate the data presented in FIG. 9, mouse hepatocytes were isolated from inos^−/− or from wild type C57BL/6J mice, which were then pre-treated for 1 hr with L-NIO (1 mM) to inhibit iNOS prior to CO administration. Those groups exposed to CO received a one-hour pretreatment prior to addition of TNF-α/ActD and were then returned to CO exposure.
To generate the data presented in FIG. 19, mouse hepatocytes were isolated from HO-1 null mice (hmox-1^−/−) and wild type (C57BL/6J) littermates, pretreated for 1 hour with CO (250 ppm), and treated with TNF-α/ActD. Viability was assayed as described above.
To generate the data presented in FIG. 20, mouse hepatocytes were isolated from HO-1 null mice (hmox-1^−/−) and wild type (C57BL/6J) littermates, pretreated with the NO donor SNAP (500 μM), and then treated with TNF-α/ActD 1 hour later.

[2] = system: TNF-α/D-gal-induced liver injury
Description: Male C57BL/6J ([…], Bar Harbor, Me.), 8-12-wk-old inos^−/− mice and wild type littermates (bred/maintained at the University of Pittsburgh) were used for in vivo experiments.
10 mg/kg subcutaneously (s.c.), Alexis Biochem., San Diego, Calif.) or cobalt protoporphyrin (CoPP, 5 mg/kg, intraperitoneally (i.p.), Frontier Scientific, Logan, Utah). […] Where indicated, acetaminophen (Sigma Chem. Co.; St Louis, Mo.) was administered (500 mg/kg, i.p.).
A CO analyzer (Interscan, Chatsworth, Calif.) was used to measure CO levels continuously in the chamber. CO concentrations were maintained at 250 ppm at all times. Mice were placed in the exposure chamber as required.
Whether HO-1 is protective against acute hepatic failure was investigated. Cobalt protoporphyrin (5 mg/kg, i.p.) was administered to male C57BL/6J mice. Twenty-four hours later, TNF-α/D-gal (0.3 μg/8 mg/mouse, i.p., respectively) was administered to the mice. Serum alanine aminotransferase (ALT) levels in the mice were measured 8 hours after administration of TNF-α/D-gal.
After receiving TNF-α/D-gal, mice were returned to the CO exposure chamber and their serum was analyzed for ALT levels 6-8 hr later.
To generate the data presented in FIGS. 11A-11H, liver samples from mice treated with TNF-α/D-gal in the presence and absence of CO (250 ppm) for 8 hr were sectioned and stained for hematoxylin & eosin (H&E), activated caspase 3 (as indicated by an increase in red intensity), and for TUNEL positive cells (as demarcated by the increased green cellular staining; a marker of cell death). Nuclei stained blue.
L-NIL was administered 2 hr prior to CO. CO-treated animals were then pre-treated (250 ppm) for 1 hr prior to TNF-α/D-gal.
VP was selectively designed to deliver NO directly to the liver. One hour after the initial VP dose, the animals were exposed to CO for 1 hr prior to administration of TNF-α/D-gal (see above). Serum ALT levels were determined 6-8 hr later.
These mice and inos^−/− mice were then administered CoPP. L-NIL was maintained in the water throughout the experiment. Control and inos^−/− mice received normal drinking water. Twenty-four hr after administration of CoPP, TNF-α/D-gal was administered and serum ALT determined 6-8 hr later.

[3] = CO 250 ppm for 8 hr, TNF-α/D-gal

[C-]#[O+] [CO, carbon monoxide]
Liver iNOS expression (iNOS; CO 250 ppm 1 hr prior to TNF-α/D-gal, livers six hours later): markedly increased
Liver iNOS expression, CO without TNF-α/D-gal (iNOS; immunostaining): modest increase
TNF-α/ActD-induced cell death, hmox-1−/− hepatocytes ([1]; CO 250 ppm, 1 hour pretreatment): unable to protect
TNF-α/ActD-induced cell death, wild type hepatocytes ([1]; CO 250 ppm, 1 hr pre-incubation and maintained, viability 12 hours): significantly less cell death; also recorded: significantly protected
Cell death in the presence of SB203580 ([1]; SB203580 3-30 μM, data not shown): inhibited cell death
Cell death in hepatocytes from mkk3−/− mice ([1]; data not shown): inhibited cell death
Protection when CO treatment initiated after addition of TNF-α ([1]; data not shown): less protection was observed
Protection against cell death where iNOS expression was absent or inhibited ([1]; inos−/− hepatocytes or wild type with L-NIO 1 mM, 12 hr): did not provide protection
TNF-α/D-gal-induced liver damage by H&E staining ([2]; CO 250 ppm for 8 hr): markedly reduced
Staining of activated caspase-3 in liver [2, 3]: less staining
TUNEL positive cells in liver [2, 3]: fewer TUNEL positive cells
Serum ALT lower than in air-exposed mice ([2]; CO 250 ppm, 1 hr pre-treatment and continued, ALT 6-8 hr after TNF-α/D-gal): 74%
Protection against liver damage (serum ALT, histopathology) in absence of iNOS function/expression ([2]; CO 250 ppm, inos−/− mice and wild type mice treated with L-NIL 5 mg/kg i.p. every two hours): unable to protect against liver damage
